Data reported in patent US20160106102A1, “KNOWN AND NEW HETEROCYCLIC COMPOUNDS AS PEST CONTROL AGENTS” (BAYER CROPSCIENCE AKTIENGESELLSCHAFT, priority 2013, published 2016).
Like-named read-outs stand apart in the source and are kept apart here.

Columns and labels:
Myzus persicae = Myzus persicae - sachet test; format: in vivo; conditions: 100% = all animals killed
Summary of the method: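 Active ingredient dissolved with 2% N-methylpyrrolidone and 2% diacetone alcohol, diluted in water, then pipetted into nutrient medium. Plate sealed and paired with a plate carrying green peach aphids. Kill in % scored after the set time (100% = all dead, 0% = none dead).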

[1] = log P determination by LC-MS in the acidic range; format: physicochemical
Source text: The LC-MS determination in the acidic range is effected at pH 2.7 using 0.1% aqueous formic acid and acetonitrile (contains 0.1% formic acid) as eluents, linear gradient from 10% acetonitrile to 95% acetonitrile. Alternatively, the determination is effected in the acidic range at pH 2.3 using 0.1% aqueous phosphoric acid and acetonitrile as eluents; linear gradient from 10% acetonitrile to 95% acetonitrile.

[2] = application rate of 30 ppm in nutrient medium
[3] = application rate of 6 ppm in nutrient medium
[4] = Table 2, compounds of the formula (I-2), acidic range pH 2.7 or pH 2.3
[5] = Table 3, HPLC on reversed-phase column (C 18), 55° C., acidic range (pH 2.7 or pH 2.3)

log P (acid) ([1]; LC-MS in the acidic range)	Compound	efficacy (kill in %) (Myzus persicae; [2])	efficacy (kill in %) (Myzus persicae; [3])	other results
1.79	Cc1ccc(C(=O)Nc2cc(C)n(Cc3cccc(F)c3)n2)cn1 [Compound I-1-108]	100%		
	Cc1cc(NC(=O)c2cccnc2)nn1C(=O)c1ccccc1Cl [Compound I-1-122, N-[1-(2-Chlorobenzoyl)-5-methyl-1H-pyrazol-3-yl]nicotinamide]			pest or weed control at 6 ppm (Myzus persicae; Myzus persicae, application rate of 6 ppm in nutrient medium, read-out: efficacy (kill in %)): 100%; pest or weed control at 30 ppm (Myzus persicae; Myzus persicae, application rate of 30 ppm in nutrient medium, read-out: efficacy (kill in %)): 100%; chromatographic logP ([1]; pH 2.7, LC-MS in the acidic range, read-out: log P (acid)): 2.27; chromatographic logP ([1]; pH 2.7, values given in the synthesis examples and NMR lists, read-out: HPLC-MS: log P): 2.27
1.42	Cc1cc(NC(=O)c2cccnc2)nn1Cc1ncccc1Cl [Compound I-1-37]	100%	100%	
1.7	CSCCCNC(=O)n1nc(NC(=O)c2cccnc2)cc1C [Compound I-1-165]	100%	100%	
	COCn1cnc(NC(=O)c2cccnc2)n1 [Compound I-2-18]	80%		log P (acid) [1, 4]: −0.23
1.86	Cc1cc(NC(=O)c2cccnc2)nn1-c1ccccc1Cl [Compound I-1-213]	100%		
1.92	Cc1cc(NC(=O)c2cccnc2)nn1CC(=O)Cc1ccccc1Cl [Compound I-1-247]	100%	100%	
	Cc1nn(-c2ncccc2Cl)nc1NC(=O)c1cccnc1 [Compound I-3-9]	100%		log P (acid) [1, 5]: 1.24
2.12	Cc1cc(NC(=O)c2cccnc2)nn1C(=O)NCc1ccc(F)cc1 [Compound I-1-328]	100%	100%	
2.73	Cc1cc(NC(=O)c2cccnc2)nn1Cc1ccc2c(c1)CCCC2 [Compound I-1-158]	100%		
2.22	Cc1cc(NC(=O)c2cccnc2)nn1C(=O)NC(C)c1ccccc1 (stereo not drawn) [Compound I-1-331]	100%	100%	
	CCc1nc(NC(=O)c2cccnc2)nn1-c1ccccc1 [Compound I-2-6]	100%		log P (acid) [1, 4]: 1.24
2.1	Cc1cc(NC(=O)c2cccnc2)nn1C(=O)NCc1cccc(F)c1 [Compound I-1-327]	100%	100%	
1.23	Cc1cc(NC(=O)c2cccnc2)nn1Cc1ncc(Cl)cn1 [Compound I-1-195]	100%	100%	
2.1	O=C(Nc1cc(Cl)n(-c2ccccc2)n1)c1cccnc1 [Compound I-1-274]	100%		
0.96	CSc1c(C#N)c(NC(=O)c2cccnc2)nn1C [Compound I-1-270]	80%		
1.27	Cc1cc(N(C)C(=O)c2cccnc2)nn1CC1CC1 [Compound I-1-177]	100%		
1.55	COc1ccc(Cn2ccc(NC(=O)c3cccnc3)n2)cc1 [Compound I-1-78]	100%		
1.93	Cc1cc(NC(=O)c2cccnc2)nn1Cc1csc(C(F)(F)F)n1 [Compound I-1-302]	100%	100%	
	O=C(Nc1nn(-c2ncccc2Cl)nc1C(F)(F)F)c1cccnc1 [Compound I-3-6]	100%		log P (acid) [1, 5]: 1.89
0.89	Cn1nc(NC(=O)c2cccnc2)cc1OC(F)F [Compound I-1-111]	100%	100%	
2.13	Cc1cc(NC(=O)c2cncc(F)c2)nn1C(C)(C)C [Compound I-1-348]	80%		
0.66	Cc1cc(NC(=O)c2cccnc2)nn1Cc1cn2cc(F)ccc2n1 [Compound I-1-159]	100%	100%	
0.98	Cc1c(Br)c(NC(=O)c2cccnc2)nn1Cc1ncccn1 [Compound I-1-125]	100%		
